{"source": "patent US10000791B2", "about": "“Measurement method for human pancreatic lipase activity” (ASAHI KASEI PHARMA CORPORATION, priority 2013, dated 2018)", "key": {"human pancreatic lipase [1]": {"tested_on": "human pancreatic lipase", "test": "lipase activity measured in control, normal and heparin-administered samples with each reagent (1,2-dioleoyl glycerol, UV method; Liquitech Lipase Color II for verification)", "type": "biochemical", "design": "lipase activity relative to (1) comparative example NaDCA (Table 1): concentration or dose not given beside the values", "details": "for lipase activity (Table 1): NaDCA pH 8.15, other bile salts pH 7.0; for lipase activity relative to (1) comparative example NaDCA (Table 1): pH 7.0; for lipase activity (Table 2): comparative example pH 8.15, present example pH 7.1, bile acid 40 mmol/L in R-1", "experimental": "(§1) A mixture of the substrate stock solution and the R-1 in a proportion of 1:2 was used as a first reagent. The R-2 was directly used as a second reagent. As a sample, pooled serum or a control sample (a control containing a pancreatic lipase) was used. A proportion in amount among the sample, the first reagent and the second reagent was set as sample:first reagent:second reagent of 0.01 ml:0.18 ml:0.06 ml. The sample was added to the first reagent, the resultant mixture was heated at 37° C. for 5 minutes, the second reagent was added thereto, and a change rate of an absorbance at 340 nm based on reduced NADP was obtained at 37° C. from 3 minutes after the addition of the second reagent to 4 minutes after the addition, and then, the lipase activity was calculated by using a molecular extinction coefficient of 6300 L/mol·cm of the reduced NADP. Besides, as a sample blank, saline was used instead of a sample, an absorbance was measured by using the reagent for sample blank obtained by removing MGLPII from the second reagent, and a difference between the thus measured two values was defined as an enzyme activity value. For the measurement, Hitachi automatic analyzer Model H7170 or H7080 was used.\n(§2) Similarly to Example 1, a mixture of the substrate stock solution and the R-1 in a proportion of 1:2 was used as a first reagent. Except for this, the measurement was performed in the same manner as in Example 1.\nA commercially available reagent for a resorufin colorimetric method, “Liquitech Lipase Color II” manufactured by Roche Diagnostics using 1,2-O-dilauryl-rac-glycerol-3-glutaric acid-(6-methylresorufin)ester (DGGR), which is regarded not to be influenced by a non-pancreatic lipase, such as a lipoprotein lipase or a hepatic lipase, appearing in blood due to administration of heparin, was used for verifying the effect of the present example. “Liquitech Lipase Color II” was used in accordance with the package insert, and a special calibrator was used for calculating the enzyme activity. […] The concentration of each bile acid used in the present example was set to be the same as that in the comparative example.\nAs samples, a control, non-heparin-administered samples (normal samples), and heparin-administered samples were used.\nThe compositions of the reagents were the same as those of Example 2. As a comparative example, NaDCA (in a concentration of 40 mmol/L in the R-1) was used as the bile acid, and the reaction solution was adjusted to pH 8.15 (by the Bicine buffer) for measuring a heparin-administered sample.\nIt is noted that CRM-001b containing a human pancreatic recombinant lipase dissolved not in distilled water but in a pooled serum was used as the calibrator to calculate the lipase activity.\nAs a bile acid of the present example and a reference example, NaTDCA was selected, and the pH dependence with the pH of a reaction solution changed in a range of 6.2 to 7.6 was examined. It is noted that a case of pH 7.6 was used as the reference example. An MES buffer was used for adjusting pH to 6.2 and 6.4, and the BES buffer was used for adjusting the other pHs. As samples, (six) control samples (controls each containing a pancreatic lipase) and (nine) heparin-administered samples were used. As a comparative example, NaDCA (in a concentration of 40 mmol/L in the R-1) was used as the bile acid, and a reaction solution having pH 8.15 (the Bicine buffer) was used. Besides, “Liquitech Lipase Color II” manufactured by Roche Diagnostics was used for verifying the effect of the present example."}, "human pancreatic lipase [2]": {"tested_on": "human pancreatic lipase", "test": "pH dependence of human pancreatic lipase activity in the presence of bile acids (diglyceride substrate, UV method)", "type": "biochemical", "details": "for degree of the activation of human pancreatic lipase: conjugated bile acid singly, 40 mmol/L in R-1", "experimental": "After weighing 1,2-dioleoyl glycerol (DODG) (manufactured by Nippon Fine Chemical Co., Ltd.) to attain a concentration of 9.32 mmol/L when dissolved, 1% polyoxyethylene (10) nonyl phenyl ether (NPE) (manufactured by Wako Pure Chemical Industries Ltd.) containing 1.66 mmol/L of MES (manufactured by Dojindo Laboratories) was added thereto to be dissolved therein by stirring at 37° C. for 2 hours, and the resultant was allowed to stand still in ice for 2 hours or more. The thus obtained solution was used as a substrate original liquid.\nThe above-described diglyceride original liquid was used for preparing a “substrate stock solution” having the following composition:\nA “first reaction solution (R-1)” having the following composition was prepared:\nA “second reaction solution (R-2)” having the following composition was prepared:\nA “second reaction solution (R-2) for sample blank” having the following composition was prepared:\nas §1\nAs a conjugated bile acid to be added to the R-1, sodium taurodeoxycholate (NaTDCA), sodium glycodeoxycholate (NaGDCA), sodium glycochenodeoxycholate (NaGCDCA), sodium taurochenodeoxycholate (NaTCDCA), sodium glycocholate (NaGCA), sodium taurocholate (NaTCA) and sodium tauroursodeoxycholate (NaTUDCA) all in a concentration of 40 mmol/L were selected, the R-1 was adjusted, by using BES (manufactured by Dojindo Laboratories) respectively to pH 6.8, 7.0, 7.2, 7.4, 7.8, and 8.0, and the human pancreatic lipase activity was measured by using these. The pH of the R-2 was adjusted to be equal to that of the R-1.\nIt is noted that the concentration of each non-conjugated bile acid was set to be 24 mmol/L in the R-1. Besides, BES was used for adjusting pH to 7.2, 7.6, 7.8 and 8.0, and Bicine was used for adjusting pH to 8.2 and 8.5.\nas §2\nBesides, NaTCA was also combined with a conjugated bile acid, NaTDCA, to examine the pH for giving a maximum value of the human pancreatic lipase activity (the apparent optimum pH). It is noted that a BES buffer was used for adjusting pH to 6.9, 7.2 and 7.7, and a Bicine buffer was used for adjusting pH to 7.95 and 8.2. In each of the combinations of NaGCA/NaDCA, NaTCA/NaDCA, NaTUDCA/NaDCA and NaTCA/NaTDCA, the concentration of each bile acid was set to 20 mmol/L in the R-1. With respect to the combination of NaTCA and NaTDCA, a concentration of 40 mmol/L of NaTDCA was used as a control.\nThe compositions of the reagents and the measurement operation were the same as those of Example 2."}}, "data": [{"smiles": "C[C@H](CCC(=O)NCC(=O)[O-])[C@H]1CC[C@H]2[C@@H]3CC[C@@H]4C[C@H](O)CC[C@]4(C)[C@H]3C[C@H](O)[C@]12C.[Na+]", "note": "[NaGDCA, sodium glycodeoxycholate]", "values": [{"measurement": "lipase activity (Table 1)", "setting": "human pancreatic lipase [1]; Normal sample 1", "result": 47.1, "unit": "U/L"}, {"measurement": "lipase activity relative to (1) comparative example NaDCA (Table 1)", "setting": "human pancreatic lipase [1]; Normal sample 1", "result": 120.6, "unit": "%"}, {"measurement": "lipase activity (Table 1)", "setting": "human pancreatic lipase [1]; Normal sample 2", "result": 91.5, "unit": "U/L"}, {"measurement": "lipase activity relative to (1) comparative example NaDCA (Table 1)", "setting": "human pancreatic lipase [1]; Normal sample 2", "result": 96.3, "unit": "%"}, {"measurement": "lipase activity (Table 1)", "setting": "human pancreatic lipase [1]; Normal sample 3", "result": 49.7, "unit": "U/L"}, {"measurement": "lipase activity relative to (1) comparative example NaDCA (Table 1)", "setting": "human pancreatic lipase [1]; Normal sample 3", "result": 106.5, "unit": "%"}, {"measurement": "lipase activity (Table 1)", "setting": "human pancreatic lipase [1]; Normal sample 4", "result": 32.9, "unit": "U/L"}, {"measurement": "lipase activity relative to (1) comparative example NaDCA (Table 1)", "setting": "human pancreatic lipase [1]; Normal sample 4", "result": 75.8, "unit": "%"}, {"measurement": "lipase activity (Table 1)", "setting": "human pancreatic lipase [1]; Normal sample 5", "result": 36.2, "unit": "U/L"}, {"measurement": "lipase activity relative to (1) comparative example NaDCA (Table 1)", "setting": "human pancreatic lipase [1]; Normal sample 5", "result": 89.0, "unit": "%"}, {"measurement": "lipase activity (Table 1)", "setting": "human pancreatic lipase [1]; sample Heparin 1", "result": 39.1, "unit": "U/L"}, {"measurement": "lipase activity relative to (1) comparative example NaDCA (Table 1)", "setting": "human pancreatic lipase [1]; sample Heparin 1", "result": 50.9, "unit": "%"}, {"measurement": "lipase activity (Table 1)", "setting": "human pancreatic lipase [1]; sample Heparin 2", "result": 47.5, "unit": "U/L"}, {"measurement": "lipase activity relative to (1) comparative example NaDCA (Table 1)", "setting": "human pancreatic lipase [1]; sample Heparin 2", "result": 54.8, "unit": "%"}, {"measurement": "lipase activity (Table 1)", "setting": "human pancreatic lipase [1]; sample Heparin 3", "result": 36.9, "unit": "U/L"}, {"measurement": "lipase activity relative to (1) comparative example NaDCA (Table 1)", "setting": "human pancreatic lipase [1]; sample Heparin 3", "result": 32.7, "unit": "%"}, {"measurement": "lipase activity (Table 1)", "setting": "human pancreatic lipase [1]; sample Heparin 4", "result": 28.2, "unit": "U/L"}, {"measurement": "lipase activity relative to (1) comparative example NaDCA (Table 1)", "setting": "human pancreatic lipase [1]; sample Heparin 4", "result": 27.8, "unit": "%"}, {"measurement": "lipase activity (Table 1)", "setting": "human pancreatic lipase [1]; sample Heparin 5", "result": 23.8, "unit": "U/L"}, {"measurement": "lipase activity relative to (1) comparative example NaDCA (Table 1)", "setting": "human pancreatic lipase [1]; sample Heparin 5", "result": 34.8, "unit": "%"}, {"measurement": "lipase activity (Table 1)", "setting": "human pancreatic lipase [1]; sample Heparin 6", "result": 28.9, "unit": "U/L"}, {"measurement": "lipase activity relative to (1) comparative example NaDCA (Table 1)", "setting": "human pancreatic lipase [1]; sample Heparin 6", "result": 41.8, "unit": "%"}, {"measurement": "lipase activity (Table 1)", "setting": "human pancreatic lipase [1]; sample Heparin 7", "result": 58.0, "unit": "U/L"}, {"measurement": "lipase activity relative to (1) comparative example NaDCA (Table 1)", "setting": "human pancreatic lipase [1]; sample Heparin 7", "result": 42.0, "unit": "%"}, {"measurement": "lipase activity (Table 1)", "setting": "human pancreatic lipase [1]; sample Heparin 8", "result": 43.9, "unit": "U/L"}, {"measurement": "lipase activity relative to (1) comparative example NaDCA (Table 1)", "setting": "human pancreatic lipase [1]; sample Heparin 8", "result": 34.8, "unit": "%"}, {"measurement": "lipase activity (Table 1)", "setting": "human pancreatic lipase [1]; sample Heparin 9", "result": 81.0, "unit": "U/L"}, {"measurement": "lipase activity relative to (1) comparative example NaDCA (Table 1)", "setting": "human pancreatic lipase [1]; sample Heparin 9", "result": 48.0, "unit": "%"}, {"measurement": "lipase activity (Table 1)", "setting": "human pancreatic lipase [1]; sample PRECINORM", "result": 52.2, "unit": "U/L"}, {"measurement": "lipase activity relative to (1) comparative example NaDCA (Table 1)", "setting": "human pancreatic lipase [1]; sample PRECINORM", "result": 102.4, "unit": "%"}, {"measurement": "lipase activity (Table 1)", "setting": "human pancreatic lipase [1]; sample PRECIPATH", "result": 124.6, "unit": "U/L"}, {"measurement": "lipase activity relative to (1) comparative example NaDCA (Table 1)", "setting": "human pancreatic lipase [1]; sample PRECIPATH", "result": 97.4, "unit": "%"}]}, {"smiles": "C[C@H](CCC(=O)NCC(=O)[O-])[C@H]1CC[C@H]2[C@@H]3[C@H](O)C[C@@H]4C[C@H](O)CC[C@]4(C)[C@H]3C[C@H](O)[C@]12C.[Na+]", "note": "[NaGCA, sodium glycocholate]", "values": [{"measurement": "degree of the activation of human pancreatic lipase", "setting": "human pancreatic lipase [2]; pooled serum", "result": "below detection limit"}]}, {"smiles": "C[C@H](CCC(=O)[O-])[C@H]1CC[C@H]2[C@@H]3[C@H](O)C[C@@H]4C[C@H](O)CC[C@]4(C)[C@H]3C[C@H](O)[C@]12C.[Na+]", "note": "[NaCA, sodium cholate]", "values": [{"measurement": "signal of human pancreatic lipase activity", "setting": "human pancreatic lipase [2]; 24 mmol/L in R-1, compared with NaDCA", "result": "merely a slight signal"}]}, {"smiles": "C[C@H](CCC(=O)NCCS(=O)(=O)O)[C@H]1CC[C@H]2[C@@H]3[C@H](O)C[C@@H]4C[C@H](O)CC[C@]4(C)[C@H]3C[C@H](O)[C@]12C", "note": "[NaTCA, sodium taurocholate]", "values": [{"measurement": "degree of the activation of human pancreatic lipase", "setting": "human pancreatic lipase [2]; pooled serum", "result": "below detection limit"}]}, {"smiles": "C[C@H](CCC(=O)NCCS(=O)(=O)[O-])[C@H]1CC[C@H]2[C@@H]3[C@@H](O)C[C@@H]4C[C@H](O)CC[C@]4(C)[C@H]3CC[C@]12C.[Na+]", "note": "[NaTUDCA, sodium tauroursodeoxycholate]", "values": [{"measurement": "degree of the activation of human pancreatic lipase", "setting": "human pancreatic lipase [2]; pooled serum", "result": "below detection limit"}]}, {"smiles": "C[C@H](CCC(=O)[O-])[C@H]1CC[C@H]2[C@@H]3[C@H](O)C[C@@H]4C[C@H](O)CC[C@]4(C)[C@H]3CC[C@]12C.[Na+]", "note": "[NaCDCA, sodium chenodeoxycholate]", "values": [{"measurement": "pH for giving a maximum value of the activity (apparent optimum pH)", "setting": "human pancreatic lipase [2]; pooled serum, non-conjugated bile acid singly, 24 mmol/L in R-1, pH 7.2-8.5", "result": "about 7.7"}]}, {"smiles": "C[C@H](CCC(=O)NCCS(=O)(=O)[O-])[C@H]1CC[C@H]2[C@@H]3[C@@H](O)C[C@@H]4C[C@H](O)CC[C@]4(C)[C@H]3CC[C@]12C.[Na+]", "note": "[NaTCDCA, sodium taurochenodeoxycholate]", "values": [{"measurement": "lipase activity (Table 2)", "setting": "human pancreatic lipase [1]; sample Heparin 1", "result": 54.5, "unit": "U/L"}, {"measurement": "lipase activity (Table 2)", "setting": "human pancreatic lipase [1]; sample Heparin 2", "result": 31.7, "unit": "U/L"}, {"measurement": "lipase activity (Table 2)", "setting": "human pancreatic lipase [1]; sample Heparin 3", "result": 48.1, "unit": "U/L"}]}]}
